Source: ChEMBL document CHEMBL1201862, “PubChem BioAssay data set” (2004)
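Cultured in 96-well plates, cells were exposed to test compound for 48 hours across five concentrations. Abbreviation: GI50, concentration required for 50% inhibition of growth.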 Activity calls are given as the source filed them. No stated cut-off is given here; in the data, active = GI50 up to about 1.1 µM and inactive = higher.

Legend:
Experiment in all cases: growth of human tumour cells (NCI), 48 h
IGROV-1 = system: IGROV-1
SF-539 = system: SF-539
Malme-3M = system: Malme-3M
SNB-19 = system: SNB-19
NCI-H522 = system: NCI-H522
OVCAR-4 = system: OVCAR-4
ACHN = system: ACHN
HCT-116 = system: HCT-116
UACC-257 = system: UACC-257
KM12 = system: KM12
HOP-62 = system: HOP-62
CAKI-1 = system: CAKI-1
SK-MEL-5 = system: SK-MEL-5
U-251 = system: U-251
SF-268 = system: SF-268
SK-OV-3 = system: SK-OV-3
M14 = system: M14
MDA-N = system: MDA-N
T47D = system: T47D

SMILES | GI50 (IGROV-1) | GI50 (SF-539) | GI50 (Malme-3M) | GI50 (SNB-19) | GI50 (NCI-H522) | GI50 (OVCAR-4) | GI50 (ACHN) | GI50 (HCT-116) | GI50 (UACC-257) | GI50 (KM12) | GI50 (HOP-62) | GI50 (CAKI-1) | GI50 (SK-MEL-5) | GI50 (U-251) | GI50 (SF-268) | GI50 (SK-OV-3) | GI50 (M14) | GI50 (MDA-N) | GI50 (T47D)
Cn1nc2ccc3nccc(NCCNCCO)c3c2n1 | 68.4 µM (inactive) | 33.6 µM (inactive) | 36.8 µM (inactive) | 73.5 µM (inactive) | 37.5 µM (inactive) | 40.9 µM (inactive) | 34.3 µM (inactive) | 18.2 µM (inactive) | 27.3 µM (inactive) | 35 µM (inactive) | 47.4 µM (inactive) | 63 µM (inactive) | 56.5 µM (inactive) | 37 µM (inactive) | 27.4 µM (inactive) | 34.1 µM (inactive) | 32.5 µM (inactive) | – | –
Cc1ccc(S(=O)(=O)Nn2c(S)c(C#N)c(-c3ccc(N(C)C)cc3)c(C#N)c2=O)cc1 | 10.8 µM (inactive) | 19 µM (inactive) | 18.7 µM (inactive) | 43 µM (inactive) | 14.5 µM (inactive) | 17.1 µM (inactive) | 20.6 µM (inactive) | 28.2 µM (inactive) | 51.4 µM (inactive) | 24.6 µM (inactive) | – | > 100 µM (inactive) | 17.7 µM (inactive) | 21.5 µM (inactive) | – | 48.8 µM (inactive) | 31.2 µM (inactive) | > 100 µM (inactive) | –
O=C(c1ccccc1F)c1c(NCc2ccccc2)c(=O)c1=O | 55.7 µM (inactive) | > 100 µM (inactive) | > 100 µM (inactive) | > 100 µM (inactive) | 19.9 µM (inactive) | > 100 µM (inactive) | > 100 µM (inactive) | > 100 µM (inactive) | > 100 µM (inactive) | > 100 µM (inactive) | > 100 µM (inactive) | > 100 µM (inactive) | > 100 µM (inactive) | > 100 µM (inactive) | > 100 µM (inactive) | > 100 µM (inactive) | > 100 µM (inactive) | > 100 µM (inactive) | –
O=C(N/C(=C/c1ccc(Cl)cc1Cl)c1nc2ccccc2s1)c1ccccc1 | 11.1 µM (inactive) | 15.5 µM (inactive) | 16.4 µM (inactive) | 19.5 µM (inactive) | 8.34 µM (inactive) | 15.5 µM (inactive) | 6.56 µM (inactive) | 6.78 µM (inactive) | 13.4 µM (inactive) | 13.2 µM (inactive) | 10.8 µM (inactive) | 15.8 µM (inactive) | 13.5 µM (inactive) | 2.5 µM (inactive) | 14 µM (inactive) | 24.3 µM (inactive) | 17.7 µM (inactive) | – | 13.4 µM (inactive)
O=C(/C=C(\C(=O)c1cccs1)c1cccs1)c1ccc(C(=O)/C=C(\C(=O)c2cccs2)c2cccs2)cc1 | > 100 µM (inactive) | > 100 µM (inactive) | – | > 100 µM (inactive) | – | > 100 µM (inactive) | > 100 µM (inactive) | > 100 µM (inactive) | > 100 µM (inactive) | > 100 µM (inactive) | > 100 µM (inactive) | > 100 µM (inactive) | > 100 µM (inactive) | > 100 µM (inactive) | > 100 µM (inactive) | > 100 µM (inactive) | > 100 µM (inactive) | – | > 100 µM (inactive)
NCCSC1(O)C(=O)c2ccccc2-c2ccccc21 (stereo unspecified) | 1.8 µM (inactive) | 1.15 µM (inactive) | 1 µM (active) | 1.53 µM (inactive) | 1.55 µM (inactive) | 0.207 µM (active) | 1.05 µM (active) | 0.176 µM (active) | 0.435 µM (active) | 1.63 µM (inactive) | 1.53 µM (inactive) | – | 0.265 µM (active) | 0.713 µM (active) | 1.5 µM (inactive) | 1.63 µM (inactive) | 1.02 µM (active) | – | 2.1 µM (inactive)
CC1(C)OC1CC/C(=C/CBr)CBr (stereo unspecified) | 13.8 µM (inactive) | 18.1 µM (inactive) | 22.3 µM (inactive) | 15.2 µM (inactive) | 10.3 µM (inactive) | 17 µM (inactive) | 16.9 µM (inactive) | 18.1 µM (inactive) | 14.9 µM (inactive) | 16 µM (inactive) | 17.3 µM (inactive) | 17.9 µM (inactive) | 14.1 µM (inactive) | 15.6 µM (inactive) | 15.5 µM (inactive) | 19 µM (inactive) | 19.8 µM (inactive) | 15.3 µM (inactive) | –
CO[C@@H]1C[C@H]2N3CC[C@@]2(c2cc4c(cc2C3)OCO4)[C@H]2O[C@@H]12 | > 100 µM (inactive) | 0.603 µM (active) | > 100 µM (inactive) | > 100 µM (inactive) | > 100 µM (inactive) | > 100 µM (inactive) | > 100 µM (inactive) | > 100 µM (inactive) | > 100 µM (inactive) | > 100 µM (inactive) | > 100 µM (inactive) | > 100 µM (inactive) | 0.157 µM (active) | > 100 µM (inactive) | > 100 µM (inactive) | > 100 µM (inactive) | > 100 µM (inactive) | > 100 µM (inactive) | –
C[C@@H]1CCC[C@]2(C)O[C@H]2CC[C@@](C)(O)[C@@H]2CC3=C(CO)C(=O)O[C@H]3[C@H]1O2 | 25.5 µM (inactive) | > 50 µM (inactive) | – | > 50 µM (inactive) | 28.4 µM (inactive) | > 50 µM (inactive) | > 50 µM (inactive) | > 50 µM (inactive) | > 50 µM (inactive) | > 50 µM (inactive) | > 50 µM (inactive) | > 50 µM (inactive) | > 50 µM (inactive) | > 50 µM (inactive) | > 50 µM (inactive) | > 50 µM (inactive) | > 50 µM (inactive) | – | > 50 µM (inactive)
CCC(=O)O[C@H]1CC[C@H]2[C@@H]3CCC4=CC(=O)C=C[C@]4(O)[C@H]3CC[C@]12C | 22.4 µM (inactive) | 29.6 µM (inactive) | 48 µM (inactive) | 28.4 µM (inactive) | 16.7 µM (inactive) | 28.3 µM (inactive) | 55.7 µM (inactive) | 21.9 µM (inactive) | 3.72 µM (inactive) | 18.5 µM (inactive) | 29.4 µM (inactive) | 24.3 µM (inactive) | 5.22 µM (inactive) | 20.5 µM (inactive) | 31 µM (inactive) | 82.6 µM (inactive) | 22.5 µM (inactive) | 2.95 µM (inactive) | –
CC(C)CC(NC(=O)C(CSc1ccc([N+](=O)[O-])cc1)Cc1ccccc1)C(=O)Nc1ccccc1 (stereo unspecified) | 46.6 µM (inactive) | 47.9 µM (inactive) | 27 µM (inactive) | 45.5 µM (inactive) | 64.9 µM (inactive) | 35.1 µM (inactive) | 80.7 µM (inactive) | > 100 µM (inactive) | > 100 µM (inactive) | 41.4 µM (inactive) | – | 72.1 µM (inactive) | 64.3 µM (inactive) | > 100 µM (inactive) | – | > 100 µM (inactive) | 99.8 µM (inactive) | > 100 µM (inactive) | –
Cc1ccc(/C=C/C(=N/NC(=O)N/N=C(/C=C/c2ccc(C)cc2)C(C)C)C(C)C)cc1 | – | – | > 10 µM (inactive) | > 10 µM (inactive) | 9.12 µM (inactive) | 1.5 µM (inactive) | > 10 µM (inactive) | 5.24 µM (inactive) | > 10 µM (inactive) | > 10 µM (inactive) | > 10 µM (inactive) | > 10 µM (inactive) | – | > 10 µM (inactive) | > 10 µM (inactive) | – | > 10 µM (inactive) | > 10 µM (inactive) | –
Clc1ccc(Nc2nnc(CNc3ccc(-c4nnc(Nc5ccc(Cl)cc5)s4)cc3)s2)cc1 | 41.2 µM (inactive) | – | 52.5 µM (inactive) | 30.1 µM (inactive) | 12.8 µM (inactive) | 27.5 µM (inactive) | 20.2 µM (inactive) | 12.5 µM (inactive) | 34 µM (inactive) | 11 µM (inactive) | 30.4 µM (inactive) | 42.6 µM (inactive) | 24.9 µM (inactive) | 24.2 µM (inactive) | 26.9 µM (inactive) | 47.3 µM (inactive) | 22.8 µM (inactive) | 18.2 µM (inactive) | –
O=C(O)Cn1nnc2c(=O)[nH][nH]c(=O)c21 | – | – | > 100 µM (inactive) | > 100 µM (inactive) | – | > 10 µM (inactive) | > 100 µM (inactive) | > 100 µM (inactive) | > 100 µM (inactive) | > 100 µM (inactive) | > 100 µM (inactive) | > 100 µM (inactive) | > 100 µM (inactive) | > 100 µM (inactive) | – | – | > 100 µM (inactive) | > 100 µM (inactive) | –
N#Cc1cc([N+](=O)[O-])ccc1NC(=O)C(=O)Nn1c(S)nc2ccccc2c1=O | > 100 µM (inactive) | > 100 µM (inactive) | > 100 µM (inactive) | > 100 µM (inactive) | > 100 µM (inactive) | > 100 µM (inactive) | – | > 100 µM (inactive) | > 100 µM (inactive) | > 100 µM (inactive) | > 100 µM (inactive) | > 100 µM (inactive) | > 100 µM (inactive) | > 100 µM (inactive) | > 100 µM (inactive) | > 100 µM (inactive) | > 100 µM (inactive) | – | –
CC(C)(C)OC(=O)NC(Cc1ccccc1)NC(=O)NC(=O)OCc1ccccc1 (stereo unspecified) | > 100 µM (inactive) | 25.7 µM (inactive) | 41.8 µM (inactive) | 36.5 µM (inactive) | 15.6 µM (inactive) | – | 39.1 µM (inactive) | 19.2 µM (inactive) | 81.3 µM (inactive) | 59.8 µM (inactive) | 31.3 µM (inactive) | 24 µM (inactive) | 26.7 µM (inactive) | 58.5 µM (inactive) | 40.3 µM (inactive) | 54.6 µM (inactive) | 57.7 µM (inactive) | 64 µM (inactive) | –
